Measurements taken from patent US5420334A, “Inhibitors of farnesyl-protein transferase” (Merck & Co., Inc., priority 1994, dated 1995).

Tested on: Ras famesylation
Assay: not given
Conditions: cited from earlier work

Row | Structure (SMILES) | Inhibition of Ras famesylation in vivo
1 | CC[C@H](C)C(=O)O[C@H]1CCC=C2C=C[C@H](C)[C@H](CC[C@@H]3C[C@@H](O)CC(=O)O3)[C@H]21 [compactin] | Inhibition of Ras famesylation in vivo has been demonstrated
2 | CC[C@H](C)C(=O)O[C@H]1C[C@@H](C)C=C2C=C[C@H](C)[C@H](CC[C@@H]3C[C@@H](O)CC(=O)O3)[C@H]21 [lovastatin] | Inhibition of Ras famesylation in vivo has been demonstrated

Biological target: T1, bovine brain FPTase (Bos taurus, UniProt P29702+P49355)
T1 construct: Famesyl-protein transferase (FPTase) from bovine brain; from tissue; host or cells: bovine brain, partially purified (DEAE-Sephacel, N-octyl agarose, mono Q)
Assay: In vitro inhibition of Ras farnesyl-protein transferase (FPTase)
Type: biochemical
Conditions: Ras-CVLS, [3H]FPP, concentration giving 50% inhibition, read-out: IC50, inhibition of RAS farnesylation
Method: The intrinsic famesyl-protein transferase (FPTase) activity of representative compounds of this invention was measured by the assay as described below:
Famesyl-protein transferase (FPTase) from bovine brain was chromatographed on DEAE-Sephacel (Pharmacia, 0-0.8M NaCl gradient elution), N-octyl agarose (Sigma, 0-0.6M NaCl gradient elution), and a mono Q HPLC column (Pharmacia, 0-0.3M NaCl gradient). Ras-CVLS (Cys-Val-Leu-Ser) at […], […] [^3 H]FPP, and the indicated compounds were incubated with this partially purified enzyme preparation. FPTase inhibition data is a measurement of the ability of the test compound to inhibit Ras farnesylation in vitro.
Famesyl-protein transferase (FPTase) from bovine brain was chromatographed on DEAE-Sephacel (Pharmacia, 0-0.8M NaCl gradient elution), N-octyl agarose (Sigma, 0-0.6M NaCl gradient elution), and a mono Q HPLC column (Pharmacia, 0-0.3M NaCl gradient). Ras-CVLS at 3.5 µM, 0.25 µM [3H]FPP, and the indicated compounds were incubated with either a partially purified bovine enzyme preparation or a recombinant human enzyme preparation. The FPTase data presented below in Table 1 reflects the ability of the test compound to inhibit RAS famesylation in vitro, as described in Pompliano, et al., Biochemistry 31, 3800 (1992).
*(IC50 is the concentration of the test compound which gives 50%
inhibition of bovine brain FPTase under the described assay conditions)

Row | Structure (SMILES) | IC50
3 | C/C(=C\Cc1c(O)cc(C)c(C=O)c1O)CC[C@@]1(C)[C@H](C)C(=O)CC[C@@H]1C [Compound 1, 3-[5-[1(R),2(S),6(S)-trimethyl-5-oxocyclohexyl]-3-methyl-2-pentenyl]-2,4-di hydroxy-6-methylbenzaldehyde] | 0.7 µM
4 | CC(=O)O[C@@H]1CC(=O)[C@@H](C)[C@](C)(/C=C/C(C)=C/Cc2c(O)c(Cl)c(C)c(C=O)c2O)[C@H]1C [Compound 2] | 2.8 µM
5 | CC(=O)O[C@@H]1CC(=O)[C@@H](C)[C@](C)(/C=C/C(C)=C/Cc2c(O)cc(C)c(C=O)c2O)[C@H]1C [Compound 3] | 5.6 µM
6 | C/C(=C\Cc1c(O)c(Cl)c(C)c(C=O)c1O)[C@H](C[C@@]1(C)[C@H](C)C(=O)CC[C@@H]1C)OC(=O)CC(C)C [Compound 7] | 6.5 µM
7 | CC(=O)O[C@@H](C[C@@]1(C)[C@H](C)C(=O)CC[C@@H]1C)/C(C)=C/Cc1c(O)cc(C)c(C=O)c1O [Compound 9] | 13 µM
8 | COc1cc(C)c(C=O)c(O)c1C/C=C(C)/C=C/[C@@]1(C)[C@H](C)C(=O)CC[C@@H]1C [Compound 12] | 31 µM
9 | Cc1cc(O)c(CCC(C)CC[C@@]2(C)[C@H](C)C(=O)CC[C@@H]2C)c(O)c1C (some centres unmarked) [Compound 14] | 18.6 µM
10 | C/C(=C\Cc1c(O)cc(C)c(CO)c1O)CC[C@@]1(C)[C@H](C)[C@H](O)CC[C@@H]1C [Compound 15] | 101 µM
11 | C/C(=C\Cc1c(O)cc(C)c(C)c1O)CC[C@@]1(C)[C@H](C)C(=O)CC[C@@H]1C [Compound 16] | 30.7 µM
12 | C/C(=C\Cc1c(O)cc(C)c(CO)c1O)CC[C@@]1(C)[C@H](C)C(=O)CC[C@@H]1C [Compound 18] | 75 µM
13 | C/C(=C\Cc1c(O[Si](C)(C)C(C)(C)C)cc(C)c(C=O)c1O)CC[C@@]1(C)[C@H](C)C(=O)CC[C@@H]1C [Compound 19] | > 140 µM
14 | COC(=O)c1c(C)cc(O)c(C/C=C(\C)CC[C@@]2(C)[C@H](C)C(=O)CC[C@@H]2C)c1O [Compound 20] | > 140 µM
15 | C/C(=C\Cc1c(O)cc(C)cc1O)CC[C@@]1(C)[C@H](C)C(=O)CC[C@@H]1C [Compound 24] | 20 µM

Results, then the compound that gave them:

Row | IC50 | Structure (SMILES)
16 | 6.5 µM | CC(/C=C/[C@@]1(C)[C@H](C)C(=O)CC[C@@H]1C)=C\Cc1c(O)cc(C)c(C=O)c1O [Compound 4]
17 | 15 µM | CC(/C=C/[C@@]1(C)[C@H](C)C(=O)C=C[C@@H]1C)=C\Cc1c(O)c(Cl)c(C)c(C=O)c1O [Compound 5]
18 | 4.6 µM | C/C(=C\Cc1c(O)cc(C)c(C=O)c1O)[C@H](C[C@@]1(C)[C@H](C)C(=O)CC[C@@H]1C)OC(=O)CC(C)C [Compound 6, 3-[5-[1(R),2(S),6(S)-trimethyl-5-oxocyclohexyl]-3-methyl-4(S)-[3-methylbutanoyloxy]-2-pentenyl]-2,4-dihydroxy-6-methylbenzaldehyde]
19 | 2.2 µM | CCC(=O)O[C@@H](C[C@@]1(C)[C@H](C)C(=O)CC[C@@H]1C)/C(C)=C/Cc1c(O)cc(C)c(C=O)c1O [Compound 8]
20 | 6.5 µM | CC(=O)Oc1cc(C)c(C=O)c(OC(C)=O)c1C/C=C(\C)CC[C@@]1(C)[C@H](C)C(=O)CC[C@@H]1C [Compound 11]
21 | 2 µM | COc1cc(C)c(C=O)c(O)c1C/C=C(\C)CC[C@@]1(C)[C@H](C)C(=O)CC[C@@H]1C [Compound 13, 3-[5-[1(R),2(S),6(S)-trimethyl-5-oxocyclohexyl]-3-methyl-2-pentenyl]-2-hydroxy-4-methoxy-6-methylbenzaldehyde]
22 | > 140 µM | C/C(=C\Cc1c(O)cc(C)c(C)c1O)CC[C@@]1(C)[C@H](C)[C@H](O)CC[C@@H]1C [Compound 17]
23 | > 50 µM | COCOc1cc(C)c(C=O)c(OCOC)c1C/C=C(\C)CC[C@@]1(C)[C@H](C)C(=O)CC[C@@H]1C [Compound 21]
